Data reported in patent publication US10799433B2, “Foaming antimicrobial compositions” (S.C. Johnson & Son, Inc., priority 2016, dated 2020).

System: C. albicans 10231
Experiment: Skin conditioner impact on antimicrobial efficacy
Assay type: cell-based, Candida albicans
Conditions: skin conditioner added to prototype composition
Description: FIG. 6 is a bar graph showing the effect on the antimicrobial efficacy (average log reduction of C. albicans 10231) for three prototype antimicrobial compositions sharing all the same ingredients but differing in the amount of added PEG-45 palm kernel glycerides (ranging from 0 to 1.0%) in comparison to a commercial antimicrobial soap (ECOLAB Equi-Soft™ soap).

## PEG-45 palm kernel glycerides
  impact on the efficacy: negative impact
